Data from patent US20230066065A1, “USE OF LOW DOSES OF HYDROXYCHLOROQUINE FOR THE TREATMENT OF LIPIN-1 DEFICIENCY” (Institut National de la Santé et de la Recherche Médicale …, priority 2020, published 2023).
Where “and” joins values, the source holds several entries; their conditions need not be identical. Equal values may be shown once. Entries after “also recorded” stand apart in the source; their conditions may differ.

What was measured:
[1] = system: patients with Lipin-1 deficiency; test: Off open-label use phases 1 and 2 study: number of rhabdomyolysis (RM) episodes under HCQ; assay type: in vivo, human
Description: Ten patients with Lipin-1 deficiency were progressively enrolled in an off open-label use phases 1 and 2 study to assess safety, clinical, and biological effects of Hydroxychloroquine Sulfate (HCQ). The diagnosis of Lipin-1 disease was confirmed in all patients (Table 1). LPIN1 genotyping was performed by PCR analysis of DNA isolated from blood as previously described^2. The patients presented severe episodes of acute RM (1 to 6) defined as creatine kinase (CK) levels >6 000 U/L (normal<160 U/L), associated with mild viral illness, fasting, or prolonged exercise. Chronic symptoms such as muscle pain, fatigability, exercise intolerance, or more rarely cardiac feature were associated in 6 patients.
The patients were treated with oral HCQ at an initial posology of 6.5 mg/Kg/day in one intake, not exceeding 400 mg/day, with different treatment duration depending on the patient (Table 2). Tablets (200 mg) were proposed to patients over 6 years old, and soluble form to patients under 6 years old.
Efficacy and safety of HCQ in patients were assessed by clinical and biological evaluation determined at baseline before HCQ treatment and at regular intervals after initiation of HCQ treatment (every 3 to 6 months).
The clinical parameters encompassed the RM episode number and several standardized tools based on age at study start: auto evaluations assessing the muscle pain and the quality of life, 6-Minute Walk Test, 3-Minute Step Test, heart ultrasounds, and exercise tolerance test in the subgroup of subjects>6 years old^11.
The patients were treated with oral HCQ at a initial posology of 6.5 mg/Kg/day in one intake, not exceeding 400 mg/day, with different treatment duration depending on the patient (Table 2). The data were collected at the Necker Hospital (Reference Center of Metabolic diseases) during the visits: M0 (before treatment), M3 (3 months treatment), M6 then every 6 months. The efficacy outcome of the treatment was measured by clinical and biological endpoints.

TLR9 = test: Relative TLR9 expression in myoblasts, RT-qPCR; assay type: cell-based, human; details: patient and control myoblasts; EBSS + CpG-A
Description: FIG. 7.(A-C) Relative TLR9 expression in Lipin-1 deficient and control myoblasts; comparison between basal condition and immunometabolic stress (A-B) and after HCQ treatment compared to immunometabolic stress (C); RT-qPCR. compared to basal condition in myoblasts. GM: growth medium; E: EBSS; C: CpG-A; HCQ: Hydroxychloroquine.
(§1) Human primary myoblasts were isolated and grown as described^19. Briefly, CD56+ myoblasts isolated by flow cytometry cell sorting were maintained in HamF10 medium supplemented with 20% fetal calf serum on culture plates coated with 1% gelatin. To mimic RM, F10 medium was replaced by EBSS ([…]) (4 h) with TLR9 agonist CpGA (ODN2216) at the concentration of 10 μg/ml. Myoblasts were incubated with various HCQ concentrations (0.1 to 10 μM) 18 h before and during myoblasts starvation.

CYP3A4/CYP2C8 = details: cited from earlier work
[2] = system: Lipin-1 deficient myoblasts; test: MtDNA levels by qPCR in myoblasts under immunometabolic stress; assay type: cell-based, human; details: myoblasts of P1, P4, P6 and P11; results need to be reproduced
Description: as §1
MtDNA levels was performed by using qPCR for the mitochondrial12S gene reported to the nuclear β-actin gene. Quantitative PCR was performed in triplicate using the Light Cycler VIIA7 System (Roche).

[3] = system: Lipin-1 deficient myoblasts; test: Oxidized DNA (8-OHdG) immunofluorescence staining in myoblasts under immunometabolic stress; assay type: cell-based, human
Description: as §1
Imuunofluorescence staining. Oxidized DNA on fixed cells was detected with mouse-anti-8-OHdG (sc-66036, Santa Cruz Biotechnology, IF: 1:100)^54 and analyzed by confocal fluorescence microscopy. Images were recorded on a confocal LSM 700 microscope (Zeiss), with a 63× oil immersion objective and quantification was performed by analyzing cells on the Icy software (v 1.9.5.1 BioImage Analysis unit, Institut Pasteur, France).

[4] = system: primary patients myoblasts; assay type: cell-based, human
Description: Then, we were interested in the dosage og HCQ in vitro in order to analyse the HCQ incorporation in primary patients myoblasts.

[5] = system: patients with Lipin-1 deficiency; test: Cardiopulmonary exercise test, cycle ergometer (dQ/dVO2); assay type: in vivo, human
Description: Patients≥6 years old underwent cardiopulmonary exercise tests (CPETs). CPETs were performed to assess the maximal exercise capacity using a cycle ergometer^11. The CPET data were compared with retrospectively collected data from a population of 21 paired children who required non-invasive cardiac output monitoring because of dyspnoea during exercise or chest pain and were considered healthy at the end of the examinations. Pairing was conducted according to sex and age. Oxygen uptake (VO2) and carbon dioxide output were measured breath-by-breath by an automated system (Sensor Medic, MSE). Measurements were taken at rest and every 20 s throughout exercise and recovery. The exercise test was considered maximal if the patient achieved a respiratory exchange ratio (RER)>1.1 and/or a maximal heart rate>85% of the theoretical maximal heart rate, and/or the oxygen uptake reached a plateau^11. Cardiac output (Q) and stroke volume (SV) were determined noninvasively during the exercise test using a thoracic bioelectrical impedance device (PhysioFlow, PF-05 Lab 1, Manatec Biomedical) as routinely performed in our centre. We calculated the slope of the relationship between cardiac output and oxygen utilization (dQ/dVO2) using measurements of Q and VO2 at rest as well as during submaximal and maximal exercise.

[6] = system: patients with Lipin-1 deficiency; test: 6-Minute Walk Test and 3-Minute Step Test; assay type: in vivo, human; details: patients older than 6 y; versus prior treatment
Description: Muscle function was assessed by walking capacity within a 6-Minute Walk Test (6 MWT)^48,49 and by stair climbing capacity within a 3-Minute Step Test (3 MST)^50. The objectives were to walk and climb steps as far as possible for 6 and 3 minutes respectively.

[7] = system: patients with Lipin-1 deficiency; test: Muscle pain (VAS) and quality-of-life (PedsQL) questionnaires; assay type: in vivo, human
Description: VAS questionnaire was completed by the patient and their parents for evaluating muscle pain, ranged from score 4: not painful, to 40: very painful. Two Quality-of-life assessment ([…]) adapted to the age of the patient were completed by either the patient or their parents. The score ranged from 0: very good quality of life, to 92: very bad quality of life.

[8] = system: patients with Lipin-1 deficiency; test: Echocardiography (LVEF); assay type: in vivo, human
Description: Echocardiography was performed using a Vivid 9 system (General Electric Vingmed Ultrasound, Horten, Norway). Transducers ([…]) were chosen based on patient size and morphology to obtain the best image resolution. Images were acquired and stored in a digital format by two experienced examiners for offline analysis using EchoPac version 112.0.1 software (General Electric Vingmed). All records were performed while the patient was in sinus rhythm under continuous monitoring via electrocardiogram. All measurements of ventricular dimensions and function were performed according to the guidelines of the American and European Societies of Echocardiography^51.
The global longitudinal strain of the left ventricle was defined as the percentage of change during myocardial deformation and was evaluated through the speckle-tracking method using EchoPac (2D strain Q analysis) version 112.0.1 (General Electric Vingmed)^11.

[9] = system: LC3-II in Lipin-1 deficient and control myoblasts; test: Autophagy: LC3-II/B-actin ratio by Western Blot in primary myoblasts under immunometabolic stress (EBSS + CpG-A); assay type: cell-based, human
Description: as §1
Autophagy measurements. Autophagy was analyzed using the LC3-II/B-actin ratio by Western Blot. The following antibodies used in this study were: mouse-anti-β-actin (sc-81178, Santa Cruz Biotechnology, western blotting (WB): 1:5000), mouse-anti-LC3B (clone 4E12, MBL International, IF: 1:100).

[10] = Dosage of Hydroxychloroquine in blood/plasma of treated patients; assay type: in vivo, human
Description: Clinical and biological parameters were evaluated in parallel of the dosage of HCQ, performed on total blood samples with HPLC. Biological parameter consisted in measuring pro-inflammatory cytokines in plasma with […]. Physical condition included muscle pain (VAS score), quality-of-life assessment (PedsQL™ score), the distance walked during the 6-minute test, the number of steps climbed during the 3-minute test, cardiac function and sub-maximal exercise test. In vitro studies were performed on primary myoblasts from 4 patients and healthy controls. Autophagy was analyzed by measuring the ratio between LC3-II and B-actin by Western Blot. Oxidized DNA was studied by immunofluorescence staining. MtDNA levels was performed by using qPCR.
The dosage of Hydroxychloroquine was performed on total blood samples at a rate of 5 ml per assay tube, using EDTA tubes, and stored at +4° C. (dosages performed in the pharmacology/toxicology Department of the Hospital Cochin and Hospital La Pitié-Salpétrière).

[11] = system: patients with Lipin-1 deficiency; test: Evaluation of the tolerance of HCQ (allergy, abdominal pain, eye fundus, retinogram); assay type: in vivo, human
MCP-1 = test: Plasma cytokine concentration, Cytometric Bead Assay; assay type: in vivo, human; details: all patients tested, following vs prior treatment
Description: (§2) Cytokine concentrations were measured in plasma using a ten-plex Cytometric Bead Assay (CBA) kit from BD Biosciences, according to the manufacturer's instructions, then analyzed by flow cytometry (ARIA II; BD Biosciences) with CBA Analysis Software (FCAP Array version 3.0; Soft Flow, St Louis Park, Minn.). The results were expressed in picograms per milliliter.

IL8 = test: as above; assay type: in vivo, human; details: all patients tested, following vs prior treatment
Description: as §2

Compound: CCN(CCO)CCCC(C)Nc1ccnc2cc(Cl)ccc12.O=S(=O)(O)O (centres unmarked) [HCQ, 2-[[4-[(7-Chloro-4-quinolyl)amino]pentyl]ethylamino] ethanol sulfate (1:1)]
- patients without new acute RM under treatment ([1]; of 10 patients, 29 RM prior to treatment): Seven
- RM after resumption of treatment ([1]; patient P1): No other RM was observed
- RM after HCQ disruption ([1]; patient P1, discontinued at M9, within 6 weeks after disruption): underwent extensive RM
- Number of severe RM (CPK > 10k U/L) during treatment ([1]; patient P1-P10, oral HCQ, initial 6.5 mg/Kg/day, treatment duration 12-41 months): 0 (7×) and 1 and 3 and 4
- episodes of RM despite HCQ ([1]; patient P5, context of gastroenteritis): one
- episodes of RM despite HCQ ([1]; patient P6, context of gastroenteritis): two
- benefit effect of HCQ ([1]; patient P7): had not seem to have benefit effect
- TLR9 expression under stress condition (TLR9): variable effect; also recorded: could not decrease TLR9 expression
- share of the HCQ metabolism by CYP3A4/CYP2C8 (CYP3A4/CYP2C8): 80%
- accumulation of mtDNA under immunometabolic stress [2]: prevents this accumulation
- oxDNA levels in myoblasts ([3]; HCQ 0.1 to 10 μM): normalized oxDNA levels
- accumulation of oxDNA under immunometabolic stress ([3]; myoblasts of P1, P4, P6 and P11, EBSS + CpG-A): prevents this accumulation
- HCQ incorporation in primary myoblasts [4]: HCQ incorporation is effective
- dQ/dVO2 ratio after initiation of treatment, global mean ([5]; four patients with abnormal peripheral muscle, baseline means 7, 9.5, 9.1, 7.5): 5.8
- dQ/dVO2 ratio under treatment, mean ([5]; patient P3 with cardiac failure, baseline mean 4): 4.8
- increase of median score in 3 MST following treatment [6]: 31 steps
- increase of median score in 6 MWT following treatment [6]: ~100 meters
- VAS pain score, change under treatment ([7]; 2 other patients): no difference
- VAS pain score, median following treatment ([7]; 4 patients, score 4 not painful - 40 very painful, median 12.25 prior treatment): 7
- PedsQL quality-of-life median score under treatment ([7]; 6 patients, 0 very good - 92 very bad, score 25 before treatment): 17.1
- LVEF ([8]; patient P3, M3 of treatment, 45% before): 62%
- LVEF ([8]; patient P3, M6, M9, M12 following treatment): 63%
- LVEF ([8]; patient P3, after they stopped treatment): 55%
- LC3-II accumulation (autophagy blockage) under immunometabolic stress ([9]; HCQ 10 μM, control and patients myoblasts): potentiates LC3-II accumulation
- LC3-II accumulation (autophagy blockage) under immunometabolic stress ([9]; HCQ 0.1 and 1 μM): less deleterious
- plasma HCQ levels ([10]; P5 and P6, who experimented RM, oral 6.5 mg/Kg/day): 1000 ng/mL
- Plasma HCQ (μg/L) mean ([10]; patient P1-P10, oral HCQ, mean of visits): 107 µg/L and 724 µg/L and 627 µg/L and 1048 µg/L and 1040 µg/L and 290 µg/L and 610 µg/L and 407 µg/L and 752 µg/L and 318 µg/L
- Plasma HCQ (μg/L) (median) ([10]; patient P1-P10, oral HCQ, median of visits): (107) μg/L and (854) μg/L and (597) μg/L and (955) μg/L and (1092) μg/L and (205) μg/L and (610) μg/L and (367) μg/L and (733) μg/L and 325) μg/L
- Levels of HCQ measured at each visit ([10]; patients other than P5 and P6, oral 6.5 mg/Kg/day): ~400 ng/mL
- Electroretinogramms and eye fundus ([11]; 12 months of treatment, all patients tested): normal
- allergy symptoms with HCQ treatment ([11]; all patients): Any allergy symptoms have been observed
- tolerance of HCQ in patients ([11]; overall): well tolerated
- Side effects associated with HCQ ([11]; patients 5 and 6): abdominal pain
- plasma level of MCP-1 (MCP-1): reduced
- plasma level of IL8 (IL8): reduced
